One data set deals with human DHODH (Homo sapiens, UniProt Q02127). Briefly: Inhibition of human DHODH activity assay (DCIP chromogen reduction). Particulars: enzyme extracts, 10 min at room temperature, absorbance at 600 nm, duplicate; read-out: hDHODH IC50. In kind it is biochemical. On the procedure:
DHODH activity and its inhibition were studied using a chromogen reduction assay with DCIP (2,6-dichlorophenol-indophenol).
Enzyme extracts (8 μl, ˜1.5 μg of human protein) were incubated in 96-well plates. The assay mixture (200 μl) contained 200 μM CoQD, 100 μM L-DHO, 120 μM DCIP in the assay buffer (100 mM HEPES pH 8.0, 150 mM NaCl, 10% Glicerol, 0.05% Triton X-100) and 2 μl of test compound. The compounds were dissolved in DMSO at a stock concentration of 1 mM, and tested at different concentrations varying from 10 μM to 1 pM to calculate an IC50 (concentration of inhibitor required for 50% of inhibition).
The reaction was initiated by adding the enzyme and then incubated for 10 min at room temperature before measuring DCIP reduction by counting a decrease in absorbance at 600 nm using standard instrumentation (Spectramax).
All reactions were carried out in duplicate and graphs, determining IC50 values for each compound, were plotted using the ABase software.

The test system of a further data set is Swiss mice. As to the kind of experiment: Acute hepatotoxicity assay, plasma liver markers. Type of data set: in vivo. Particulars: for ALT plasma level / AST plasma level / BIL (total bilirubin) plasma level: Swiss mice, single 100 mg/kg intraperitoneal, 24 hours later. On the procedure: Acute hepatotoxicity assays were performed in Swiss mice. Animals received a single administration of either vehicle, or 100 mg/kg of teriflunomide or a compound of the present invention (compounds from the list indicated previously) by intraperitoneal route. Twenty-four hours later, animals were sacrificed and the levels of liver markers AST (aspartate aminotransferase), ALT (alanine aminotransferase) and BIL (total bilirubin) in plasma were determined.

Data set [1] deals with rat adjuvant-induced arthritis model (AIA). Briefly: Efficacy assay in rat adjuvant-induced arthritis model (AIA), curative protocol. Type of data set: in vivo, Wistar rats. To be noted: arthritic rats, oral once a day for 10 days, compound 20 10 mg/Kg/day, MTX 0.05 mg/Kg/day, AUC days 10-21 versus vehicle, mean and SEM. On the procedure:
The effect of DHODH inhibitor compounds were tested in combination with methotrexate (0.05 mg/Kg/day) in the rat adjuvant-induced arthritis model (AIA) in animals with established disease (curative protocol). Briefly, Complete Freund Adjuvant (CFA) was injected into the left hind footpad of Wistar rats, and 10 days later the swelling of the two rear paws was measured with a plethysnnometer. […] Compounds were administered orally once a day for 10 days and paw volumes were determined every two days up to day 21.
The percentage of inhibition for every group was calculated versus values from vehicle-treated rats. The table below depicts the mean and SEM of one experiment using 6 animals per group.

The term IC50 denotes the concentration that inhibits the measured activity by half.

Entries after “also recorded” stand apart in the source; their conditions may differ.

Chain of human DHODH (Q02127 whole entry): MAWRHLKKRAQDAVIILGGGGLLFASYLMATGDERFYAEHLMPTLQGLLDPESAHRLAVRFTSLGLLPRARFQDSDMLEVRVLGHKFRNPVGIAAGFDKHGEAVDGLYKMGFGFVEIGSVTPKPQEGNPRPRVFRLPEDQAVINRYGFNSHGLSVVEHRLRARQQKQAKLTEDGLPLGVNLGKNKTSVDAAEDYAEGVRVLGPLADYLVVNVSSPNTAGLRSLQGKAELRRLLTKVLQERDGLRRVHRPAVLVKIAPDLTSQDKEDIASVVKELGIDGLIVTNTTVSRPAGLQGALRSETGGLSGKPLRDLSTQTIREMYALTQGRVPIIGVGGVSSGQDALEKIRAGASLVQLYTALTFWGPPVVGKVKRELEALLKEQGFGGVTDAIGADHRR

Consider `O=C(O)c1cc(C2CC2)ccc1Nc1cnc(-c2c(F)cccc2F)nc1` [Compound 20, 5-cyclopropyl-2-(2-(2,6-difluorophenyl)pyrimidin-5-ylamino)benzoic acid], for which, on human DHODH, the IC50 came to 14 nM. In addition, in the data set with Swiss mice, the ALT plasma level was found to be 45 IU/I, the AST plasma level is listed as 98 IU/I and the “BIL (total bilirubin) plasma level” value came to 0.07 mg/dL. Besides, in data set [1], the “% inhibition of the inflammation (AUC) Right paw” value is given as 32 ± 8%.
As to `Cc1ccc(Nc2cnc(-c3ccccc3)c(C)c2)c(C(=O)O)c1` [Compound 60, 5-Methyl-2-(5-methyl-6-phenylpyridin-3-ylamino)benzoic acid], the IC50 on human DHODH came out at 53 nM. For the same molecule, in the data set with Swiss mice, the ALT plasma level is recorded as 70 IU/I, the AST plasma level is given as 131 IU/I and the “BIL (total bilirubin) plasma level” value came out at 0.09 mg/dL.
The matching figures for `Cc1ccc(Nc2cnc(-c3ccccc3Cl)c(C)c2)c(C(=O)O)c1` [Compound 71, 2-(6-(2-Chlorophenyl)-5-methylpyridin-3-ylamino)-5-methylbenzoic acid]: 14 nM, 72 IU/I, 95 IU/I and 0.05 mg/dL.
The matching figures for `Cc1ccc(Nc2ccc(-c3ccccc3Cl)nc2)c(C(=O)O)c1` [Compound 85, 2-(6-(2-Chlorophenyl)pyridin-3-ylamino)-5-methylbenzoic acid]: 32 nM, 43 IU/I, 83 IU/I and 0.13 mg/dL.
On the same counts, the results for `Cc1ccc(Nc2cnc(-c3ccccc3F)c(C)c2)c(C(=O)O)c1` [Compound 97, 2-(6-(2-Fluorophenyl)-5-methylpyridin-3-ylamino)-5-methylbenzoic acid] are 5 nM, 55 IU/I, 92 IU/I and 0.11 mg/dL.
For the molecule `Cc1ccc(Nc2cnc(-c3ccncc3F)c(C)c2)c(C(=O)O)c1` [Compound 101, 2-(3′-Fluoro-3-methyl-2,4′-bipyridin-5-ylamino)-5-methylbenzoic acid], the IC50 at human DHODH was 37 nM.
On the same count and under the same terms, next, `O=C(O)c1cc(C2CC2)ccc1Nc1cnc(-c2ccccc2)c(C(F)(F)F)c1` [Compound 105, 5-Cyclopropyl-2-(6-phenyl-5-(trifluoromethyl)pyridin-3-ylamino)benzoic acid]: 2 nM; `COc1cccc(-c2ncc(Nc3ccc(C4CC4)cc3C(=O)O)cc2C(F)(F)F)c1` [Compound 107, 5-Cyclopropyl-2-(6-(3-methoxyphenyl)-5-(trifluoromethyl)pyridin-3-ylamino)benzoic acid]: 7 nM; `O=C(O)c1cc(Cl)ccc1Nc1ccc(-c2ccccc2Cl)nc1` [Compound 110, 5-Chloro-2-(6-(2-chlorophenyl)pyridin-3-ylamino)benzoic acid]: 145 nM.
On to `O=C(O)c1cc(C2CC2)ccc1Nc1ccc(-c2ccccc2Cl)nc1` [Compound 112, 2-(6-(2-Chlorophenyl)pyridin-3-ylamino)-5-cyclopropylbenzoic acid], for which the IC50 on human DHODH turned out to be 4 nM.
Still for that read-out and setting: the figure for `Cc1ccc(Nc2ccc(-c3ccncc3F)nc2)c(C(=O)O)c1` [Compound 116, 2-(3′-Fluoro-2,4′-bipyridin-5-ylamino)-5-methylbenzoic acid] is 90 nM.
On to `Cc1ccc(Nc2ccc(-c3c(F)cccc3F)nc2)c(C(=O)O)c1` [Compound 119, 2-(6-(2,6-Difluorophenyl)pyridin-3-ylamino)-5-methylbenzoic acid], for which the IC50 at human DHODH was found to be 19 nM. Moreover, in the data set with Swiss mice, the ALT plasma level came to 69 IU/I, the AST plasma level is reported as 96 IU/I and the “BIL (total bilirubin) plasma level” value is 0.08 mg/dL.
On the same counts, the results for `O=C(O)c1cc(C2CC2)ccc1Nc1cnc(-c2ccccc2Cl)nc1` [Compound 121, 2-(2-(2-Chlorophenyl)pyrimidin-5-ylamino)-5-cyclopropylbenzoic acid] are 3 nM, 75 IU/I, 105 IU/I and 0.05 mg/dL.
On the same counts, the results for `Cc1ccc(Nc2cnc(-c3ccccc3Cl)nc2)c(C(=O)O)c1` [Compound 123, 2-(2-(2-Chlorophenyl)pyrimidin-5-ylamino)-5-methylbenzoic acid] are 57 nM, 89 IU/I, 113 IU/I and 0.06 mg/dL.
Turning to `Cc1ccc(Nc2cnc(-c3cccc(C(=O)N4CCCC4)c3)c(C)c2)c(C(=O)O)c1` [Compound 125, 5-Methyl-2-(5-methyl-6-(3-(pyrrolidine-1-carbonyl)phenyl)pyridin-3-ylamino)benzoic acid], the IC50 at human DHODH is 9 nM.
In the case of `Cc1ccc(Nc2cnc(-c3cccc(C(=O)NC4CC4)c3)c(C)c2)c(C(=O)O)c1` [Compound 126, 2-(6-(3-(Cyclopropylcarbamoyl)phenyl)-5-methylpyridin-3-ylamino)-5-methylbenzoic acid], on human DHODH, the IC50 came out at 12 nM.
In the case of `O=C(O)c1cc(C2CC2)ccc1Nc1cnc(-c2ccccc2F)nc1` [Compound 127, 5-Cyclopropyl-2-(2-(2-fluorophenyl)pyrimidin-5-ylamino)benzoic acid], on human DHODH, the IC50 was 10 nM. For the same molecule, in the data set on Swiss mice, the ALT plasma level came out at 56 IU/I, the AST plasma level was 72 IU/I and the “BIL (total bilirubin) plasma level” value was found to be 0.07 mg/dL.
`O=C(O)c1cc(C2CC2)ccc1Nc1cnc(-c2ccccc2C(F)(F)F)nc1` [Compound 128, 2-(2-(2-trifluoromethylphenyl)pyrimidin-5-ylamino)-5-cyclopropylbenzoic acid]: at human DHODH, the IC50 was 9 nM.
The same measure, in the same setting: next, `Cc1ccccc1-c1ncc(Nc2ccc(C3CC3)cc2C(=O)O)cn1` [Compound 129, 2-(2-o-tolylpyrimidin-5-ylamino)-5-cyclopropylbenzoic acid]: 12 nM; `O=C(O)c1cc(C2CC2)ccc1Nc1cnc(-c2cc(F)ccc2F)nc1` [Compound 131, 2-(2-(2,5-difluorophenyl)pyrimidin-5-ylamino)-5-cyclopropylbenzoic acid]: 38 nM.
Take `O=C(O)c1cc(C2CC2)ccc1Nc1cnc(-c2cc(OC(F)(F)F)ccc2F)nc1` [Compound 135, 2-(2-(2-fluoro-5-trifluoromethoxyphenyl)pyrimidin-5-ylamino)-5-cyclopropylbenzoic acid]: the IC50 on human DHODH came out at 21 nM.
For the molecule `O=C(O)c1cc(C2CC2)ccc1Nc1ccc(-c2ccccc2F)nc1` [Compound 138, 2-(6-(2-fluorophenyl)pyridin-3-ylamino)-5-cyclopropylbenzoic acid], the IC50 on human DHODH worked out at 8 nM.
Still for that read-out and setting: the figure for `Cc1ccc(Nc2ccc(-c3ccc(F)cc3F)nc2)c(C(=O)O)c1` [Compound 141, 2-(6-(2,4-difluorophenyl)pyridin-3-ylamino)-5-methylbenzoic acid] is 146 nM; for `Cc1ccc(Nc2ccc(-c3c(F)ccc(F)c3F)nc2)c(C(=O)O)c1` [Compound 144, 2-(6-(2,3,6-trifluorophenyl)pyridin-3-ylamino)-5-methylbenzoic acid] it is 77 nM.
Still for that read-out and setting: next, `COc1ccc(F)cc1-c1ncc(Nc2ccc(C)cc2C(=O)O)cc1C` [Compound 148, 2-(6-(5-fluoro-2-methoxyphenyl)-5-methylpyridin-3-ylamino)-5-methylbenzoic acid]: 46 nM.
In the case of `CN(Cc1cnc2nc(N)nc(N)c2n1)c1ccc(C(=O)N[C@@H](CCC(=O)O)C(=O)O)cc1` [MTX, Methotrexate], the “% inhibition of the inflammation (AUC) Right paw” value in data set [1] was determined as 33 ± 9%.
Consider `C/C(O)=C(\C#N)C(=O)Nc1ccc(C(F)(F)F)cc1` [Teriflunomide, reference compound], for which, in the data set on Swiss mice, the ALT plasma level came to 440 IU/I, the AST plasma level amounted to 655 IU/I and the “BIL (total bilirubin) plasma level” value was determined as 0.46 mg/dL. The “change in plasma liver markers (AST, ALT, BIL) compared to vehicle-treated mice, in words” value with Swiss mice (mice, intraperitoneal route, 100 mg/kg) is listed as “dramatic increase; also recorded: drastic increase”.
